ChEMBL document CHEMBL1152150, “Interaction of ladder-shaped polyethers with transmembrane alpha-helix of glycophorin A as evidenced by saturation transfer difference NMR and surface plasmon resonance” (Bioorg Med Chem Lett, 2008)
Activity calls are given as the source filed them. The calls are words filed in the database; no cut-off is given here.

Columns and labels:
[1] = Binding affinity to transmembrane alpha-helix of glycophorin A 2G/2I mutant by surface plasmon resonance method
Glycophorin-A [2] = target: T1, Glycophorin-A (Homo sapiens, UniProt P02724); assay: Binding affinity to transmembrane alpha-helix of glycophorin A by surface plasmon resonance method
T1 sequence (P02724 whole entry): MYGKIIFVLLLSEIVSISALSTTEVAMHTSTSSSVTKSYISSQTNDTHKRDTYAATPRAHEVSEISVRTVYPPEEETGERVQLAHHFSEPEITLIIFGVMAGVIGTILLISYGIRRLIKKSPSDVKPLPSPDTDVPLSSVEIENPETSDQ

Glycophorin-A [3] = target: T1, Glycophorin-A; assay: Binding affinity to transmembrane alpha-helix of glycophorin A by saturation transfer difference NMR

Structure (SMILES)	Kd [1] [µM]	Kd (Glycophorin-A [2]) [µM]	Activity (Glycophorin-A [3])
C[C@@]12CC[C@@H]3O[C@@H]4C[C@@H]5O[C@@H]6C[C@H](O)[C@@H](CO)O[C@H]6CC[C@@]5(C)O[C@H]4C[C@H]3O[C@H]1C[C@H]1O[C@@H](CCOCc3ccccc3)[C@H](OCc3ccccc3)C[C@@H]1O2	7.7	48	
C=CCC(=C)/C=C/[C@@](C)(O)[C@H]1O[C@@H]2C[C@@H]3O[C@@H]4C[C@@H]5O[C@@H]6C[C@@H]7O[C@@H]8C[C@@H]9O[C@@H]%10C[C@@H]%11O[C@](C)(CCOS(=O)(=O)O)[C@@H](OS(=O)(=O)O)C[C@H]%11O[C@H]%10C[C@H]9O[C@H]8CC[C@@]7(C)O[C@@]6(C)CC[C@H](C)[C@H]5O[C@H]4C[C@@]3(C)O[C@H]2CC1=C [YESSOTOXIN]	85	120	Active
OC[C@H]1O[C@@H](COCc2ccccc2)[C@H](OCc2ccccc2)C[C@@H]1O	860	2400	
C=CCC(=C)/C=C/[C@@](C)(O)[C@H]1O[C@@H]2C[C@@H]3O[C@@H]4C[C@@H]5O[C@@H]6C[C@@H]7O[C@@H]8C[C@@H]9O[C@@H]%10C[C@@H]%11O[C@](C)(CCO)[C@@H](O)C[C@H]%11O[C@H]%10C[C@H]9O[C@H]8CC[C@@]7(C)O[C@@]6(C)CC[C@H](C)[C@H]5O[C@H]4C[C@@]3(C)O[C@H]2CC1=C [DESULFATED YESSOTOXIN]	99	270	
C[C@@]12CC[C@@H]3O[C@H](CO)[C@@H](O)C[C@H]3O[C@H]1C[C@H]1O[C@@H](COCc3ccccc3)[C@H](OCc3ccccc3)C[C@@H]1O2	150	240	
